Assays:
Assay in all cases: relative viability (nuclei count vs DMSO), 5 days (fraction); higher = more cells survive
Seliciclib + Crizotinib = compound: CC[C@H](CO)Nc1nc(NCc2ccccc2)c2ncn(C(C)C)c2n1 [Seliciclib] + C[C@@H](Oc1cc(-c2cnn(C3CCNCC3)c2)cnc1N)c1c(Cl)ccc(F)c1Cl [Crizotinib] (partner 1 µM)
In short: (§1)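 Relative viability is defined as nuclei in treated wells over nuclei in vehicle wells. Duplicate plates were run and medians reported. Lung cancer cell lines in 1536-well plates were dosed by pin tool one day after seeding, with one drug or with a fixed anchor-drug dose plus five library-drug doses (not always all listed) in √10 steps, and nuclei were counted after 5 days.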

Seliciclib + Vorinostat = compound: CC[C@H](CO)Nc1nc(NCc2ccccc2)c2ncn(C(C)C)c2n1 [Seliciclib] + O=C(CCCCCCC(=O)Nc1ccccc1)NO [Vorinostat] (partner 1 µM)
In short: as §1

Seliciclib + Dasatinib = compound: CC[C@H](CO)Nc1nc(NCc2ccccc2)c2ncn(C(C)C)c2n1 [Seliciclib] + Cc1nc(Nc2ncc(C(=O)Nc3c(C)cccc3Cl)s2)cc(N2CCN(CCO)CC2)n1 [Dasatinib] (partner 0.075 µM)
In short: as §1

Seliciclib + Pictilisib = compound: CC[C@H](CO)Nc1nc(NCc2ccccc2)c2ncn(C(C)C)c2n1 [Seliciclib] + CS(=O)(=O)N1CCN(Cc2cc3nc(-c4cccc5[nH]ncc45)nc(N4CCOCC4)c3s2)CC1 [Pictilisib] (partner 1 µM)
In short: as §1

Cell Line	relative viability (Seliciclib + Crizotinib; first compound 0.08 µM)	relative viability (Seliciclib + Crizotinib; first compound 0.253 µM)	relative viability (Seliciclib + Crizotinib; first compound 0.8 µM)	relative viability (Seliciclib + Crizotinib; first compound 2.53 µM)	relative viability (Seliciclib + Crizotinib; first compound 8 µM)	relative viability (Seliciclib + Vorinostat; first compound 0.08 µM)	relative viability (Seliciclib + Vorinostat; first compound 0.253 µM)	relative viability (Seliciclib + Vorinostat; first compound 0.8 µM)	relative viability (Seliciclib + Vorinostat; first compound 2.53 µM)	relative viability (Seliciclib + Vorinostat; first compound 8 µM)	relative viability (Seliciclib + Dasatinib; first compound 0.08 µM)	relative viability (Seliciclib + Dasatinib; first compound 0.253 µM)	relative viability (Seliciclib + Dasatinib; first compound 0.8 µM)	relative viability (Seliciclib + Dasatinib; first compound 2.53 µM)	relative viability (Seliciclib + Dasatinib; first compound 8 µM)	relative viability (Seliciclib + Pictilisib; first compound 0.08 µM)	relative viability (Seliciclib + Pictilisib; first compound 0.253 µM)	relative viability (Seliciclib + Pictilisib; first compound 0.8 µM)	relative viability (Seliciclib + Pictilisib; first compound 2.53 µM)	relative viability (Seliciclib + Pictilisib; first compound 8 µM)
201T	1.04	0.996	1.04	1.02	0.95	0.967	1.07	0.904	0.637	0.906	0.502	0.654	0.589	0.385	0.548	0.712	0.693	0.676	0.656	0.626
A549	0.674	0.82	0.799	0.809	0.591	–	–	–	–	–	–	–	–	–	–	0.501	0.595	0.525	0.507	0.273
A-427	0.833	0.924	0.795	0.905	0.785	0.856	0.815	0.877	0.823	0.824	0.612	0.691	0.687	0.735	0.738	0.753	0.737	0.646	0.688	0.695
ABC-1	1.2	1.46	0.814	1.08	0.495	0.996	0.953	1.29	–	0.774	0.536	0.566	0.598	0.524	0.509	0.773	0.927	0.619	0.42	0.424
BEN	0.753	–	0.822	0.929	0.832	0.543	0.533	0.55	0.502	0.489	0.311	0.313	0.375	0.271	0.322	0.596	–	0.549	0.675	0.545
CAL-12T	0.624	–	0.846	0.687	0.461	0.583	0.407	0.788	0.7	0.625	0.501	0.738	0.362	0.23	0.284	0.304	0.566	0.39	0.303	0.221
COR-L23	0.61	0.806	0.693	0.671	0.519	0.402	0.43	0.403	0.458	0.359	0.457	0.644	0.484	0.342	0.383	0.63	0.782	0.86	0.584	0.49
COR-L 105	0.846	0.698	0.698	0.806	0.6	0.83	0.901	0.859	0.802	0.575	0.377	0.405	0.324	0.311	0.37	0.379	0.379	0.371	0.32	0.36
Calu-6	0.773	0.846	0.825	0.956	0.668	–	–	–	–	–	–	–	–	–	–	0.93	0.969	0.937	0.917	0.759
ChaGo-K-1	1.14	1.01	1.12	1.12	0.488	0.758	0.628	0.743	0.654	0.433	0.588	0.637	0.661	0.478	0.495	0.766	0.533	0.638	0.513	0.378
EKVX	0.743	1.14	0.877	1.11	0.817	0.627	0.857	0.553	0.633	0.593	0.53	0.55	0.573	0.47	0.493	0.42	0.5	0.417	0.423	0.305
EMC-BAC-2	0.735	0.744	0.824	0.728	0.534	0.454	0.414	0.547	0.259	0.307	0.305	0.288	0.399	0.218	0.277	0.505	0.526	0.497	0.392	0.51
EPLC-272H	0.88	0.729	0.746	0.903	0.636	0.43	0.506	0.476	0.311	0.405	0.329	0.298	0.408	0.183	0.266	0.316	0.338	0.287	0.174	0.3
H3255	0.787	0.892	1.01	0.965	0.727	0.854	0.825	0.855	0.691	0.755	0.341	0.447	0.335	0.279	0.324	0.47	0.567	0.487	0.483	0.502
HARA	1.06	1.16	1.06	1.21	0.638	0.555	0.518	0.588	0.381	0.487	0.288	0.274	0.319	0.228	0.245	0.284	0.376	0.339	0.422	0.283
HCC-15	0.798	0.856	0.806	0.869	0.599	0.893	0.855	0.838	0.747	0.761	0.645	0.633	0.461	0.512	0.448	0.705	0.857	0.473	0.791	0.548
HCC-44	0.709	0.842	0.778	0.821	0.698	1.14	1.19	1.06	1.08	1.07	–	–	–	–	–	0.639	0.691	0.534	0.46	0.44
HCC-78	0.364	0.333	0.327	0.262	0.274	0.393	0.518	0.389	0.396	0.32	0.427	0.416	0.371	0.259	0.28	0.203	0.274	0.187	0.174	0.181

— the supplement of paper PMC10307832
